Reference: patent US9676752B2, “Imidazolidine-2,4-dione derivatives” (IPSEN PHARMA S.A.S., priority 2013, dated 2017)
pIC50: −log10 of the molar value. Converted amounts (≈) assume the structure as drawn.

Assays:
[1] = Evaluation of solubility in potassium phosphate buffer pH 7.4; assay type: physicochemical; conditions: aqueous buffer, kinetic from dmso stock; 100 mM potassium phosphate buffer pH 7.4, target 10 μM, 0.1% DMSO, 1 hour room temperature, LC-MS/MS
Experimental: Evaluation of Solubility:
Test compounds were prepared as stock solutions at […] in DMSO. The stock solutions were diluted, in duplicate, into 100 mM potassium phosphate buffer (pH 7.4) to a target concentration of 10 μM with a final DMSO concentration of 0.1%. The solutions were shaken at 1000 rpm for 1 hour at room temperature followed by centrifugation for 10 minutes at 1200 rpm to precipitate un-dissolved particles. The supernatants were transferred to new tubes and the samples were further prepared as follows: • Undiluted: 5 μL of supernatant to 95 μL of ACN containing internal standard (IS) • 1:10 diluted: 10 μL of the supernatant into 90 μL K-buffer, mix, then transfer 5 μL of 1:10 diluted samples to 95 μL ACN containing IS • 1:100 diluted: 10 μL of the supernatant into 990 μL K-buffer, mix, then transfer 5 μL of 1:100 diluted samples to 95 μL of ACN containing IS
Samples (undiluted, 1:10 diluted, and 1:100 diluted) along with the standards were analyzed by LC-MS/MS.

[2] = target: T1, androgen receptor (Homo sapiens, UniProt P10275, T878A); test: Measurement of protein expression of the androgen receptor in LNCaP cells (AR ELISA); assay type: cell-based; conditions: 3 days treatment, whole cell protein, AR ELISA kit; read-out: IC50 AR destruction in LNCaP
T1 construct: This line expresses the androgen receptor and is hormone-dependent; endogenous in cells; host or cells: LNCaP (ATCC, 1740)
T1 sequence (P10275 1-920 T878A): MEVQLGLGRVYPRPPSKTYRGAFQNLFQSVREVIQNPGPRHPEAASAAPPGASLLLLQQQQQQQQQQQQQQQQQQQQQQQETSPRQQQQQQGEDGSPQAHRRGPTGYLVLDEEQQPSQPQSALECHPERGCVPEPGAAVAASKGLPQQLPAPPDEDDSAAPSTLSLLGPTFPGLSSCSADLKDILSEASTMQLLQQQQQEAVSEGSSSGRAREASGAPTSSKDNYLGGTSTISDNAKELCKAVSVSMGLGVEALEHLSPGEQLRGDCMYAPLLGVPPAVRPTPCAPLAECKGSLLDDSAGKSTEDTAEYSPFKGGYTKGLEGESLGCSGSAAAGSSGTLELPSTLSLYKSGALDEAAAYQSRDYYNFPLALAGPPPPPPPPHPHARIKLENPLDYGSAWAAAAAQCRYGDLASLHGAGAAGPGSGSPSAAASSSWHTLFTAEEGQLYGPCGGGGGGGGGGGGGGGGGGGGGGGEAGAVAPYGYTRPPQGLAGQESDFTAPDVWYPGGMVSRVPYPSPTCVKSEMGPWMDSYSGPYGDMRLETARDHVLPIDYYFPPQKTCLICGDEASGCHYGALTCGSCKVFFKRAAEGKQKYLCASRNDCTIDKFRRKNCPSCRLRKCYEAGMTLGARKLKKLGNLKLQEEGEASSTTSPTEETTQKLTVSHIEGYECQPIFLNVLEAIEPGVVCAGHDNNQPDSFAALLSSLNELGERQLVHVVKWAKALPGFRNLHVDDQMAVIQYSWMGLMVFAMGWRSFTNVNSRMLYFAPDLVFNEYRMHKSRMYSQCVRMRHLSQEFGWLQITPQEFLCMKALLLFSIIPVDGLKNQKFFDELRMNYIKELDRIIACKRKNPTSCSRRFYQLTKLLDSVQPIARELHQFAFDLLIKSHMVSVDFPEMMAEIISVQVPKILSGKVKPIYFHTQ
Experimental: Measurement of Protein Expression of the Androgen Receptor
The cells of the LNCaP line are seeded at a rate of 2.5 million of cells per 10 cm Petri dish and maintained in 8 ml RPMI-1640 for 4 days. After 4 days incubation, 4 ml of medium were removed from the Petri dish and 5 ml fresh medium was added carefully. 1 ml of compounds 10-fold diluted in complete medium at concentrations from 3×10^-6 M to 10^-8 M. Cells were treated with the compounds for additional 3 days. The whole cell protein was extracted by Nuclear Extract kit and quantitated by the Bradford Protein Assay. The effect of compounds on AR levels in LNCaP cells was then determined by an AR ELISA kit.

[3] = test system: LNCaP; test: Anti-proliferative activity on LNCaP in complete medium; assay type: cell-based; conditions: Homo sapiens, 144 h incubation, Cell-Titer-Glow
Experimental: 1. Anti-Proliferative Activity on LNCaP in Complete Medium
The anti-proliferative activity of the compounds of the present invention is determined on LNCaP in complete medium by applying the following experimental procedure:
The LNCaP cell type (ATCC, 1740) originates from a prostate carcinoma. This line expresses the androgen receptor and is hormone-dependent.
Maintenance of the LNCaP line is carried out in complete culture medium: RPMI, 10% of fetal calf serum, 2 mM glutamine, 100 U/ml penicillin, 0.1 mg/ml of streptomycin and 0.01M HEPES, 1 mM sodium pyruvate, […] of D-glucose. • Seeding the plates: The LNCaP line is seeded at 20,000 cells/well in 90 μl of complete medium in 96-well plates coated with poly-D-lysine (Biocoat, Costar). • Treatment of the cells: 24 h after the seeding, the cells are treated with 10 μl/well of compound diluted in the culture medium. The concentrations used are the following: 1 nM/10/30/100/300/1000/3000/10,000 nM. The cells are incubated for 144 h at 37° C., 5% CO2. • Reading: After incubation for 6 days, cell proliferation was determined by Cell-Titer-Glow (CTG) Luminescent Cell Viability Assay. • Results: The experiments are carried out in duplicate and the best compounds are tested twice. A concentration value inhibiting the cell proliferation by 50% (IC50) is calculated.

[4] = test system: VCaP; test: Anti-proliferative activity on VCaP in complete medium; assay type: cell-based; conditions: Homo sapiens, 216 h, Cell-Titer-Glow, reading after 9 days
Experimental: (§1) 3. Anti-Proliferative Activity on VCaP in Complete Medium • The cells of the VCaP line (ATCC CRL-2876) are seeded at 20000 cells/well in 90 μl of complete medium in 96-well plates coated with poly-D-lysine (Biocoat, Costar). • Treatment of the cells: 24 h after the seeding, the cells are treated with 10 μl/well of compound diluted in the culture medium. The concentrations used are the following: 1 nM/10/30/100/300/1000/3000/10,000 nM. The cells are incubated for […] at 37° C., 5% CO2. • Reading: After incubation for 9 days, cell proliferation was determined by Cell-Titer-Glow (CTG) Luminescent Cell Viability Assay • Results: The experiments are carried out in duplicate and the best compounds are tested twice. A concentration value inhibiting the cell proliferation by 50% (IC50) is calculated.

[5] = test system: DU145; test: Anti-proliferative activity on DU145 in complete medium; assay type: cell-based; conditions: Homo sapiens, DU-145, 144 h incubation, Cell-Titer-Glow, line does not express androgen receptor
Experimental: 2. Anti-Proliferative Activity on DU145 in Complete Medium
as §1, with “It is used to evaluate the selectivity of the compounds for androgen receptor expressing cells. No activity of the compounds is expected. •” for “3. Anti-Proliferative Activity on VCaP in Complete Medium •”, “the DU145” for “the VCaP”, “(ATCC HTB-81)” for “(ATCC CRL-2876)”, “at 800” for “at 20000”, “for 6” for “for 9”

[6] = test system: human prostate cancer cells; conditions: agonist activity in place of antagonist activity; cited from earlier work

SMILES | solubility at 1 h [1] | DC50 [2] | pIC50 [3] | pIC50 [4] | pIC50 [5] | effect on growth of human prostate cancer cells in culture [6]
CC1(C)C(=O)N(c2ccc(C#N)c(C(F)(F)F)c2)C(=O)N1C/C=C\CN1C(=O)N(c2ccc(S(C)(=O)=O)c(C(F)(F)F)c2)C(=O)C1(C)C [Example 1, (Z)-4-(3-(4-(5,5-dimethyl-3-(4-(methylsulfonyl)-3-(trifluoromethyl)phenyl)-2,4-dioxoimidazolidin-1-yl)but-2-en-1-yl)-4,4-dimethyl-2,5-dioxoimidazolidin-1-yl)-2-(trifluoromethyl)benzonitrile] | 2.66 µM (≈ 1.86 µg/mL) | 123 nM | 6.50 | 6.26 | < 5.00 | 
CC1(C)C(=O)N(c2ccc(S(C)(=O)=O)c(C(F)(F)F)c2)C(=O)N1C/C=C\CN1C(=O)N(c2cnc(C#N)c(C(F)(F)F)c2)C(=O)C1(C)C [Example 2, (Z)-5-(3-(4-(5,5-dimethyl-3-(4-(methylsulfonyl)-3-(trifluoromethyl)phenyl)-2,4-dioxoimidazolidin-1-yl)but-2-en-1-yl)-4,4-dimethyl-2,5-dioxoimidazolidin-1-yl)-3-(trifluoromethyl)picolinonitrile] | 0.14 µM (≈ 0.0981 µg/mL) | 946 nM | 5.80 | 5.98 | < 5.00 | 
CC1(C)C(=O)N(c2ccc(C#N)c(C(F)(F)F)c2)C(=O)N1C/C=C\CN1CC(=O)N(c2ccc(S(C)(=O)=O)c(C(F)(F)F)c2)C1=O [Example 3, (Z)-4-(4,4-dimethyl-3-(4-(3-(4-(methylsulfonyl)-3-(trifluoromethyl)phenyl)-2,4-dioxoimidazolidin-1-yl)but-2-en-1-yl)-2,5-dioxoimidazolidin-1-yl)-2-(trifluoromethyl)benzonitrile] | 0.53 µM (≈ 0.356 µg/mL) |  | 5.95 |  | < 5.00 | 
CC1(C)NC(=O)N(c2ccc([N+](=O)[O-])c(C(F)(F)F)c2)C1=O [nilutamide] |  |  |  |  |  | capable of stimulating the growth
